Values of other authors as cited in publication PMC2637266, “Quantification of gamma-secretase modulation differentiates inhibitor compound selectivity between two substrates Notch and amyloid precursor protein” (Molecular Brain, 2008).

Assays:
[1] = tested on: plasma Aβ40; parameters: method as in PMID 18090456, PMID 16505324, PMID 18695053; details: AD patients; cited from earlier work
[2] = tested on: γ-secretase substrates APP, ErbB-4, and Notch; parameters: method as in PMID 12777371; details: cited from earlier work

Row | SMILES | plasma Aβ40 [1] | tolerability [1] | generation of intracellular domains (ICDs) of APP, ErbB-4, and Notch [2] | cleavage of γ-secretase substrates at the middle of transmembrane domain [2]
1 | CC(C)[C@H](O)C(=O)N[C@@H](C)C(=O)N[C@@H]1C(=O)N(C)CCc2ccccc21.O.O [LY450139 dihydrate] | reduces plasma Aβ40 | well tolerated | – | –
2 | CC(C)Cc1ccc(C(C)C(=O)O)cc1 (stereo not shown) [ibuprofen] | – | – | without affecting the generation | –
3 | COc1ccc2c(c1)c(CC(=O)O)c(C)n2C(=O)c1ccc(Cl)cc1 [indomethacin] | – | – | without affecting the generation | specifically block the cleavage
4 | CSc1ccc(/C=C2/C(C)=C(CC(=O)O)c3cc(F)ccc32)cc1 [sulindac sulphide] | – | – | without affecting the generation | specifically block the cleavage
